The values below come from patent US8389508B2 (Glaxo Group Limited, priority 2010, dated 2013).

Structures can show the parent of a compound that is named as a salt.

In assay [1] the target is T1, human Endothelial Differentiation Gene 1 (EDG1), S1P1 receptor (Homo sapiens, UniProt P21453).
T1 construct: TEV protease site; Gal4-VP16 transcription factor; expressed in transfected cells; host or cells: EDG1-bla/U2OS (Tango GPCR-bla U2OS parental cell line)
Description: S1P1 Assay (Tango EDG1-bla/U2OS beta-lactamase reporter, agonist dose response). The class given is cell-based. The settings on record: EDG1-bla/U2OS cells, blue/green emission ratio, 10 point dose response, free base or salt form; read-out: pEC50 (S1P1 assay) (converted). How it is done:
Recombinant EDG1-bla/U2OS cells (contain the human Endothelial Differentiation Gene 1 (EDG1) linked to a TEV protease site and a Gal4-VP16 transcription factor stably integrated into the Tango GPCR-bla U2OS parental cell line) were harvested from growth medium and passaged into assay medium (Invitrogen Freestyle Expression Medium). The cells were starved for 24 hours at 37° C., 5% CO2, harvested and resuspended in assay medium at a density of ˜200,000 cells/ml. All test compounds were dissolved in DMSO at a concentration of 10 mM and were prepared in 100% DMSO to provide 10 point dose response curves. Test compounds in the free base or in a salt form were prepared by Velocity11 Bravo automation (Agilent) were added to wells in columns 2-11 and 13-22; DMSO was added to wells in columns 12 and 23 as unstimulated controls and assay medium was added to wells in columns 1 and 24 as cell-free controls. An S1P1 agonist was added to wells in row 2, columns 2-11 as stimulated controls and test compounds were added to wells in row 2, columns 13-22 and rows 3-15, columns 2-11/13-22 (row 1 and 16 were empty and not used). Compounds in solution were added to the assay plate (Greiner 781090) using an Echo (Labcyte) dose-response program (50 nl/well). The unstimulated and cell-free controls were loaded with 50 nl/well pure DMSO to ensure that the DMSO concentration was constant across the plate for all assays. 50 μl of the cell suspension was added to each well in columns 2-23 of the plate (˜10,000 cells per well). 50 μl of assay medium was added to each well in the cell-free controls (columns 1 and 24). The cells were incubated overnight at 37° C./5% CO2.
(§1) 10 μl of 6× substrate mixture (LiveBLAzer™-FRET B/G substrate (CCF4-AM) Cat # K1096 from Invitrogen, Inc.) was added to each well using Bravo automation and the plates incubated at room temperature for 2 h in the dark. The plate was finally read on EnVision using one excitation channel (409 nm) and two emission channels (460 nm and 530 nm).
(§2) The blue/green emission ratio (460 nm/530 nm) was calculated for each well, by dividing the background-subtracted Blue emission values by the background-subtracted Green emission values. The dose response curve is based on sigmoidal dose-response model. All ratio data was normalized based upon the maximum emission ratio of positive control and minimum emission ratio of negative control (DMSO) on each plate. The intrinsic activity (IA) of each compound is defined as relative response normalised to a reference compound, whose maximum response is defined as 100% after curve fitting.

Assay [2] has as its target T2, human Endothelial Differentiation G-protein Coupled Receptor 3 (EDG3), S1P3 receptor (Homo sapiens, UniProt Q99500).
T2 construct: expressed in transfected cells; host or cells: GeneBLAzer EDG3-Ga15-NFAT-bla HEK 293T
Description: S1P3 Assay (GeneBLAzer EDG3-Ga15-NFAT-bla HEK 293T beta-lactamase reporter, agonist dose response). The settings on record: EDG3-Ga15-NFAT-bla HEK 293T cells, blue/green emission ratio, 10 point dose response, free base or salt form; read-out: pEC50 (S1P3 assay) (converted). It is filed as cell-based. Here is the method: GeneBLAzer EDG3-Ga15-NFAT-bla HEK 293T cells (contain the human Endothelial Differentiation G-protein Coupled Receptor 3 (EDG3) and a beta-lactamase reporter gene under control of a NFAT response element and a promiscuous G Protein, Ga15, stably integrated into the GeneBLAzer Ga15-NFAT-bla HEK 293T cell line) were harvested from growth medium and suspended in assay medium (90% DMEM, 10% Charcoal-stripped FBS, 0.1 mM NEAA, 25 mM HEPES (pH 7.3), 100 U/ml penicillin, 100 μg/ml streptomycin) at a density of […]. All test compounds were dissolved in DMSO at a concentration of 10 mM and were prepared in 100% DMSO to provide 10 point dose response curves. Test compounds in the free base or in a salt form were prepared by Velocity 11 Bravo automation (Agilent) were added to wells in columns 2-11 and 13-22; DMSO was added to wells in columns 12 and 23 as unstimulated controls and assay medium was added to wells in columns 1 and 24 as cell-free controls. An S1P3 agonist was added to wells in row 2, columns 2-11 as stimulated controls and test compounds were added to wells in row 2, columns 13-22 and rows 3-15, columns 2-11/13-22 (row 1 and 16 were empty and not used). Compounds in solution were added to the assay plate (Greiner 781090) using an Echo (Labcyte) dose-response program (50 nl/well). The unstimulated and cell-free controls were loaded with 50 nl/well pure DMSO to ensure that the DMSO concentration was constant across the plate for all assays.
50 μl of the cell suspension was added to each well in columns 2-23 of the plate (˜10,000 cells per well). 50 μl of assay medium was added to each well in the cell-free controls (columns 1 and 24). The cells were incubated overnight at 37° C./5% CO2.
as §1, §2

T2 sequence (Q99500 whole entry): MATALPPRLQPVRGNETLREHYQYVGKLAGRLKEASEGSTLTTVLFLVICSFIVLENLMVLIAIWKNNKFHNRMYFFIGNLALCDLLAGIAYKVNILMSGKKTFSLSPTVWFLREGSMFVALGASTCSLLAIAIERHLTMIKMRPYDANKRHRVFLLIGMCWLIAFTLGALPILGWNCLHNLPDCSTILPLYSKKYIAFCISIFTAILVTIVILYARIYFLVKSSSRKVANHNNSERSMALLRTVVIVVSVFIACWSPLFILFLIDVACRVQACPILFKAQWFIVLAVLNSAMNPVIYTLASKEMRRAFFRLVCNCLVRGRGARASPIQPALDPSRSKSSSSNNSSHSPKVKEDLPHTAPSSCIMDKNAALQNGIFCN
T1 sequence (P21453 whole entry, the tested form may be a part): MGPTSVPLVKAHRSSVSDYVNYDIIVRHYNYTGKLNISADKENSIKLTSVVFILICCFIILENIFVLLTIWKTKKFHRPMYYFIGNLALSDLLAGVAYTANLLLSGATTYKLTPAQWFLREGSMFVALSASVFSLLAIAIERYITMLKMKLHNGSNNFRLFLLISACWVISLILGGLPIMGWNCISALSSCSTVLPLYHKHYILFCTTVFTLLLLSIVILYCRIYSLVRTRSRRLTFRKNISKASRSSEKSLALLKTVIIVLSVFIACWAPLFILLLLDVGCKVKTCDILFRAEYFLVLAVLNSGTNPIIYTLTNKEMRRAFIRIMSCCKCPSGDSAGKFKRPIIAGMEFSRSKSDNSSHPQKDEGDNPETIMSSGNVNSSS

Turning to `COc1c(CCN2CC(C(=O)O)C2)cc(F)cc1-c1nnc(-c2ccc(OC(C)C)c(C(F)(F)F)c2)s1` [Example 14, 1-{2-[5-fluoro-3-{5-[4-[(1-methylethyl)oxy]-3-(trifluoromethyl)phenyl]-1,3,4-thiadiazol-2-yl}-2-(methyloxy)phenyl]ethyl}-3-azetidinecarboxylic acid], the EC50 in assay [1] was not above 10 nM; in assay [2], more than 10000 nM.

For `CCc1c(CN2CC(C(=O)O)C2)cccc1-c1nsc(-c2ccc(OC(C)C)c(C#N)c2)n1` [Example 17, 1-{[3-(5-{3-cyano-4-[(1-methylethyl)oxy]phenyl}-1,2,4-thiadiazol-3-yl)-2-ethylphenyl]methyl}-3-azetidinecarboxylic acid trifluoroacetate], the EC50 in assay [1] is not above 10 nM; in assay [2], more than 3160 nM.

`CCc1c(CCN2CCCC(C(=O)O)C2)cccc1-c1cnc(-c2ccc(OC(C)C)c(C#N)c2)s1` (stereo not shown) [Example 92]: the EC50 in assay [1] is less than 1 nM; in assay [2], more than 3160 nM.

Consider `CCc1c(CCN2CCC(C(=O)O)C2)cccc1-c1nnc(-c2ccc(CC(C)C)c(C#N)c2)s1` (stereo not shown) [Example 61], for which the EC50 is less than 1 nM in assay [1] and more than 3160 nM in assay [2].

With `CCc1c(CCN2CC[C@H](C(=O)O)C2)cccc1-c1nsc(-c2ccc(CC(C)C)c(C#N)c2)n1` [Example 79], the EC50 in assay [1] was not above 10 nM; in assay [2], more than 3160 nM.

In the case of `CCc1c(-c2nsc(-c3ccc(CC(C)C)c(C#N)c3)n2)cccc1C1CN(CCCC(=O)O)C1` [Example 104, 4-[3-(3-{5-[3-cyano-4-(2-methylpropyl)phenyl]-1,2,4-thiadiazol-3-yl}-2-ethylphenyl)-1-azetidinyl]butanoic acid trifluoroacetate], the EC50 in assay [1] was not above 10 nM; in assay [2], more than 10000 nM.

As to `CCc1c(CN2CC(C(=O)O)C2)cccc1-c1cnc(-c2ccc(CC(C)C)c(C#N)c2)s1` [Example 43, 1-[(3-{2-[3-cyano-4-(2-methylpropyl)phenyl]-1,3-thiazol-5-yl}-2-ethylphenyl)methyl]-3-azetidinecarboxylic acid trifluoroacetate], the values for the EC50 in assay [1] and in assay [2] were less than 1 nM and more than 3160 nM, respectively.

For the compound `COc1c(CCN2CCC(C(=O)O)CC2)cc(F)cc1-c1nnc(-c2ccc(OC(C)C)c(C(F)(F)F)c2)s1` [Example 13, 1-{2-[5-fluoro-3-{5-[4-[(1-methylethyl)oxy]-3-(trifluoromethyl)phenyl]-1,3,4-thiadiazol-2-yl}-2-(methyloxy)phenyl]ethyl}-4-piperidinecarboxylic acid], the values for the EC50 in assay [1] and in assay [2] were less than 100 nM and more than 10000 nM, respectively.

Take `CCc1c(CCN2CC(C(=O)O)C2)cccc1-c1nnc(-c2ccc(OC(C)C)c(C(F)(F)F)c2)s1` [Example 7, 1-[2-(2-ethyl-3-{5-[4-[(1-methylethyl)oxy]-3-(trifluoromethyl)phenyl]-1,3,4-thiadiazol-2-yl}phenyl)ethyl]-3-azetidinecarboxylic acid trifluoroacetate]: the EC50 is less than 1 nM in assay [1] and more than 3160 nM in assay [2].

With `CCc1c(-c2nsc(-c3ccc(OC(C)C)c(Cl)c3)n2)cccc1C1CCN(CC(=O)O)CC1` [Example 99, {4-[3-(5-{3-chloro-4-[(1-methylethyl)oxy]phenyl}-1,2,4-thiadiazol-3-yl)-2-ethylphenyl]-1-piperidinyl}acetic acid trifluoroacetate], the EC50 in assay [1] is not above 10 nM; in assay [2], more than 3160 nM.

`CCc1c(CN2CC(C(=O)O)C2)cccc1-c1cnc(-c2ccc(OC(C)C)c(C(F)(F)F)c2)s1` [Example 31, 1-[(2-ethyl-3-{2-[4-[(1-methylethyl)oxy]-3-(trifluoromethyl)phenyl]-1,3-thiazol-5-yl}phenyl)methyl]-3-azetidinecarboxylic acid]: the figures for the EC50 in assay [1] and in assay [2] were less than 1 nM and more than 3160 nM, respectively.

In the case of `CCc1c(CN2CCCC(C(=O)O)C2)cccc1-c1nnc(-c2ccc(CC(C)C)c(C#N)c2)s1` (stereo not shown) [Example 50], the EC50 in assay [1] is not above 10 nM; in assay [2], more than 10000 nM.

For the compound `CCc1c(-c2nsc(-c3ccc(OC(C)C)c(Cl)c3)n2)cccc1C1CCN(CCCC(=O)O)CC1` [Example 102, 4-{4-[3-(5-{3-chloro-4-[(1-methylethyl)oxy]phenyl}-1,2,4-thiadiazol-3-yl)-2-ethylphenyl]-1-piperidinyl}butanoic acid trifluoroacetate], the values for the EC50 in assay [1] and in assay [2] were not above 10 nM and more than 10000 nM, respectively.

As to `Cc1c(CCN2CCC(C(=O)O)CC2)cccc1-c1nsc(-c2ccc(OC(C)C)c(Cl)c2)n1` [Example 74, 1-{2-[3-(5-{3-chloro-4-[(1-methylethyl)oxy]phenyl}-1,2,4-thiadiazol-3-yl)-2-methylphenyl]ethyl}-4-piperidinecarboxylic acid], the figures for the EC50 in assay [1] and in assay [2] were less than 1 nM and more than 3160 nM, respectively.

On to `CCc1c(CCN2CCC(C(=O)O)C2)cccc1-c1nsc(-c2ccc(CC(C)C)c(C#N)c2)n1` (stereo not shown) [Example 78], for which the EC50 in assay [1] was not above 10 nM; in assay [2] it was more than 3160 nM.

For the compound `CCc1c(CCN2CC(C(=O)O)C2)cccc1-c1nnc(-c2ccc(CC(C)C)c(C#N)c2)s1` [Example 10, 1-[2-(3-{5-[3-cyano-4-(2-methylpropyl)phenyl]-1,3,4-thiadiazol-2-yl}-2-ethylphenyl)ethyl]-3-azetidinecarboxylic acid], the EC50 in assay [1] was less than 1 nM; in assay [2] it was more than 3160 nM.

As for `CCc1c(CCN2CCC(C(=O)O)C2)cccc1-c1nnc(-c2ccc(OC(C)C)c(Cl)c2)s1` (stereo not shown) [Example 12, 1-{2-[3-(5-{3-chloro-4-[(1-methylethyl)oxy]phenyl}-1,3,4-thiadiazol-2-yl)-2-ethylphenyl]ethyl}-3-pyrrolidinecarboxylic acid trifluoroacetate], the EC50 is less than 1 nM in assay [1] and more than 3160 nM in assay [2].

For the compound `CCc1c(CCN2CCC[C@H]2C(=O)O)cccc1-c1cnc(-c2ccc(OC(C)C)c(C#N)c2)s1` [Example 88, 1-{2-[3-(2-{3-cyano-4-[(1-methylethyl)oxy]phenyl}-1,3-thiazol-5-yl)-2-ethylphenyl]ethyl}-L-proline trifluoroacetate], the EC50 in assay [1] was not above 10 nM; in assay [2] it was more than 10000 nM.

For the compound `CCc1c(CCN2CCC(C(=O)O)CC2)cccc1-c1nnc(-c2ccc(CC(C)C)c(C#N)c2)s1` [Example 11, 1-[2-(3-{5-[3-cyano-4-(2-methylpropyl)phenyl]-1,3,4-thiadiazol-2-yl}-2-ethylphenyl)ethyl]-4-piperidinecarboxylic acid], the EC50 was less than 1 nM in assay [1] and more than 3160 nM in assay [2].

Regarding `CCc1c(CN2CC(C(=O)O)C2)cccc1-c1cnc(-c2ccc(OC(C)C)c(Cl)c2)s1` [Example 39, 1-{[3-(2-{3-chloro-4-[(1-methylethyl)oxy]phenyl}-1,3-thiazol-5-yl)-2-ethylphenyl]methyl}-3-azetidinecarboxylic acid trifluoroacetate], the EC50 is less than 1 nM in assay [1] and more than 10000 nM in assay [2].
